Source: US20260306460A1, “COMPOSITION FOR REMOVING AND INHIBITING SENESCENT CELLS, AND USES THEREOF” (LIFECEUTIX CO., LTD., priority 2023, published 2026)

Legend:
Format in all cases: in vivo, mouse
naturally aged mice = assay: p16, MMP3, IL6 mRNA in liver of naturally aged mice (qRT-PCR), Example 15; conditions: untreated aged = 100%, 5 days; for p16 mRNA: LX-405 10 mg/kg ip, LX-801 100 mg/kg ip, LX-1102 100 mg/kg po, LX-1801 50 mg/kg ip, LX-2101 10 mg/kg ip, LX-3403 100 μg ip; for IL6 mRNA / MMP3 mRNA: doses as p16 mRNA
Method: In the same manner as in Example 7-1 of WO2023-085787 A1, naturally aged mice were administered LX-405 (5% DMSO in PBS solution, 10 mg/kg, intraperitoneal administration), LX-801 (PBS, 100 mg/kg, intraperitoneal administration), LX-1102 (0.5% CMC-Na solution, 100 mg/kg, oral administration), LX-1801 (PBS, 50 mg/kg, intraperitoneal administration), LX-2101 (0.5% CMC-Na solution, 10 mg/kg, intraperitoneal administration), and LX-3403 (mouse anti-PD-1 antibody (BioXcell), 100 μg, intraperitoneal administration) for 5 days under the following conditions. The control group was administered only the solution in the same volume. After drug administration was completed, the method described in each Example below was performed. The mouse was sacrificed in the same manner as Example 7-2 and 7-6 of WO2023-085787 A1. Total RNA was extracted from liver tissue, and qRT-PCR was performed and analyzed using synthesized cDNA. […] The mRNA amounts of p16, MMP3, and IL6 after natural aging were induced were calculated as 100% and compared them with the mRNA amounts of p16, MMP3, and IL6 after treatment with the test compound. Furthermore, an open field test was performed to analyze aging-related frailty in mice using the same method as Example 7-7 of WO2023-085787 A1. […] The amount of activity evaluated after inducing aging was calculated as 100% and compared it with the amount of activity evaluated after treatment with the test compound.

[1] = system: naturally aged C57BL6J mice; assay: SA-β-gal staining in organs of naturally aged mice, Example 21-3, Table 19; conditions: staining area, untreated aged = 100
Method: (§1) 22-month-old female C57BL6J mice (KRIBB Laboratory Animal Resource Center) were acclimated to the experimental environment for one week, after which the aged mice were randomly assigned to experimental and control groups. Eight-week-old, non-aged mice served as controls. LX-403 was mixed in a 10% ethanol solution of PEG400 and administered orally at a concentration of 25 mg/kg daily for 21 days, or administered to the skin, joints, or eyes at a concentration of 1 μM. LX-1801 was mixed in distilled water with 4% DMSO, 30% PEG300, and 5% Tween80 and administered to the skin, joints, or eyes at a concentration of 0.4 μM daily for 21 days. LX-2001 was mixed in PBS and administered to the skin, joints, or eyes at a concentration of […] daily for 21 days. LX-2002 was mixed in distilled water with 4% DMSO, 30% PEG300, and 5% Tween80 and administered to the skin, joints, or eyes at a concentration of 2 μM daily for 21 days. […] LX-2005 was mixed in distilled water with 4% DMSO, 30% PEG300, and 5% Tween80 and administered to the skin, joints, or eyes at a concentration of 90 μM daily for 21 days. LX-2007 was mixed in distilled water with 4% DMSO, 30% PEG300, and 5% Tween80 and administered to the skin, joints, or eyes at a concentration of 90 μM daily for 21 days. […] LX-3002 was mixed in distilled water with 4% DMSO, 30% PEG300, and 5% Tween80 and administered orally at a concentration of 10 mg/kg daily for 21 days. […] LX-5411 was mixed in 5% PBS and administered orally at a concentration of 10 mg/kg daily for 21 days or administered to the skin, joints, or eyes at a concentration of 3 μM. LX-5701 was mixed in PBS and administered orally at a concentration of 360 mg/kg daily for 21 days. LX-6807 was mixed in saline and administered intraperitoneally at a concentration of 1 mg/kg daily for 21 days. LX-2101 or LX-2102 was mixed in PBS solution with 5% DMSO and administered intraperitoneally at a concentration of 20 mg/kg or 10 mg/kg, respectively, daily for 21 days. The control group received only the solution in the same volume. After the end of drug administration, the methods described in each example below were performed.
Mice were sacrificed, tissue sections were prepared from each organ, and stained for the senescence-associated marker (SA-β-gal) using the same method as in Example 7-3 of WO2023-085787 A1.

[2] = system: naturally aged C57BL6J mice; assay: Lipofuscin staining in muscle of naturally aged mice, Example 21-4; conditions: untreated aged = 100, LX-5701 360 mg/kg po, LX-2101 20 mg/kg ip, LX-2102 10 mg/kg ip, daily 21 days
Method: as §1, with “The control group received only the solution in the same volume. After the end of drug administration, the methods described in each example below were performed.” left out
Mice were sacrificed and evaluated using the same method as in Example 7-4 of WO2023-085787 A1. […]

[3] = system: obesity-induced aged C57BL6J mice; assay: Diabetes and complications (HbA1c, wound size, VEGF mRNA) in obesity-aged mice, Example 23-6, Table 46; conditions: for VEGF mRNA: eye, qRT-PCR, amount after aging calculated as 100%; for diabetic foot ulcer size: full-thickness 5 mm×5 mm wound, untreated 4.2 (±0.4); for diabetic foot ulcer size / HbA1c: obesity-induced diabetes mice; for HbA1c: serum, daily for 21 days, untreated 6.9 (±1.5)
Method: 15-week-old male C57BL6J mice (The Jackson Laboratory) were induced to obesity by a high-fat diet using the same method as in Example 9-1 WO2023-085787 A1. After acclimation to the experimental environment for one week, the mice were randomly assigned to experimental and control groups. […] LX-3002 was mixed in distilled water with 4% DMSO, 30% PEG300, and 5% Tween80 and administered orally at a concentration of 10 mg/kg daily for 21 days. LX-5701 was mixed in PBS and administered orally at a concentration of 360 mg/kg daily for 21 days. LX-6807 was mixed in saline and administered intraperitoneally at a concentration of 1 mg/kg daily for 21 days. The control group received only the solution in the same volume. After the end of drug administration, the methods described in each example below were performed.
Serum collected from mice using the same method as in Example 7-5 of WO2023-085787 A1 was used to measure glycated hemoglobin (HbA1c), a marker of hyperglycemia and diabetes. Furthermore, the improvement in diabetic foot ulcers and diabetic retinopathy, major complications of diabetes, was analyzed. Specifically, a diabetic foot ulcer model was created by creating a full-thickness 5 mm×5 mm wound on the left dorsal skin of mice induced with obesity-induced diabetes. The wound size was measured under untreated and treated conditions with the test compound, and the healing effect was analyzed. In addition, the mRNA amount of VEGF, a marker of angiogenesis in retinopathy, was measured from the eye using qRT-PCR as described in Example 7-2 of WO2023-085787 A1. The qRT-PCR results were calculated as 100% for the amount of each factor after aging was induced, and compared with the amount of each factor after treatment with the test compound.

Compound	p16 mRNA (naturally aged mice)	IL6 mRNA (naturally aged mice)	MMP3 mRNA (naturally aged mice)	SA-β-gal (%), Kidney [1]	SA-β-gal (%), Liver [1]	SA-β-gal (%), Lung [1]	SA-β-gal (%), Skin [1]	SA-β-gal (%), eWAT [1]	Lipofuscin (staining area) [2]	VEGF mRNA [3]	diabetic foot ulcer size [3]	HbA1c [3]
COC(=O)c1ccc([C@H]2c3[nH]c4ccccc4c3C[C@H](C(=O)OC)N2C(=O)CCl)cc1 [LX-405]	76.9 (±6.8) %	73.6 (±7.4) %	64.7 (±11.5) %	–	–	–	–	–	–	–	–	–
S=C(N/N=C1\CCCc2cccnc21)N1CCN(c2ccccn2)CC1 [LX-801]	69.4 (±6.9) %	71.1 (±1.8) %	76.5 (±4.2) %	–	–	–	–	–	–	–	–	–
C[C@@H]1CC[C@@]23C[C@H](O)C(=O)[C@@]2(O)[C@]1(C)[C@H](OC(=O)CCl)C[C@@H](C1=CCn2c(=O)n(-c4ccccc4)c(=O)n2C1)[C@@H]3C [LX-1801, (2S,3aS,4S,5R,7R,8S,8aS,11R)-7-(1,3-Dioxo-2-phenyl-2,3,5,8-tetrahydro-1H-[1,2,4]triazolo[1,2-a]pyridazin-6-yl)-2,3a-dihydroxy-4,8,11-trimethyl-3-oxooctahydro-1H-4,8a-propanoazulen-5-yl 2-Chloroacetate]	77.4 (±5.2) %	56.8 (±19.3) %	47.1 (±15.6) %	–	–	–	–	–	–	–	–	–
CC1(C)CC[C@]2(NC(=O)C(C)(F)F)CC[C@]3(C)[C@H](C(=O)C=C4[C@@]5(C)C=C(C#N)C(=O)C(C)(C)[C@@H]5CC[C@]43C)[C@@H]2C1 [LX-2101, Omaveloxolone]	62.5 (±13.1) %	64.1 (±8.8) %	53.6 (±14.3) %	51 (±12.5) %	71 (±5.5) %	72 (±8.8) %	75 (±11.8) %	32 (±16.2) %	64 (±11.6) %	–	–	–
COC(=O)[C@]12CCC(C)(C)C[C@H]1[C@H]1C(=O)C=C3[C@@]4(C)C=C(C#N)C(=O)C(C)(C)[C@@H]4CC[C@@]3(C)[C@]1(C)CC2 [LX-2102, Bardoxolone methyl]	–	–	–	62 (±8.6) %	68 (±6.8) %	59 (±14.6) %	77 (±5.4) %	49 (±9.7) %	71 (±8.1) %	–	–	–
CCCC\C=C/C=C/C=C\CCCCCCCC(=O)O [LX-2707, Punicic acid]	–	–	–	–	–	–	–	–	–	76 (±4.0) %	3.4 (±0.3) mm	6.1 (±0.6) %
O=C1C2CCN(CC2)C1CNC(=O)C(F)(F)F (stereo not drawn) [LX-5701]	–	–	–	77 (±8.1) %	65 (±4.8) %	62 (±9.6) %	76 (±6.9) %	48 (±3.9) %	69 (±10.8) %	61 (±10.6) %	3.0 (±0.9) mm	5.0 (±1.3) %
Cc1cccc([C@H](C)c2cnc[nH]2)c1C [LX-6807, Dexmedetomidine]	–	–	–	–	–	–	–	–	–	68 (±1.6) %	3.3 (±0.5) mm	5.4 (±0.5) %
Tocofersolan [LX-3001]	–	–	–	–	–	–	–	–	–	77 (±2.4) %	3.5 (±0.2) mm	6.4 (±0.4) %
